Assays:
PASK (Invitrogen) = biological target: T1, PASK (Invitrogen) (Homo sapiens, UniProt Q96RG2); assay: PAS Kinase FRET Assay; assay type: biochemical; settings: PAS kinase TR-FRET assay (665 nm/615 nm), 2 hours at 25° C.; read-out: IC50 Kinase Domain
T1 construct: IC50 Kinase Domain; purchased Invitrogen

PASK = biological target: T2, PASK (UniProt #Q96RG2; human recombinant N-terminal GST tagged construct, residues 879-1323) (Homo sapiens, UniProt Q96RG2); assay: PASK ATP Radiochemical Assay; assay type: biochemical; settings: 33P-ATP, Myelin Basic Protein substrate, 120 min at room temperature, read-out: IC50 Kinase Domain
T2 construct: human recombinant N-terminal GST tagged construct, residues 879-1323; GST (N); host or cells: insect cells
T2 sequence (Q96RG2 879-1323, stated change not applied): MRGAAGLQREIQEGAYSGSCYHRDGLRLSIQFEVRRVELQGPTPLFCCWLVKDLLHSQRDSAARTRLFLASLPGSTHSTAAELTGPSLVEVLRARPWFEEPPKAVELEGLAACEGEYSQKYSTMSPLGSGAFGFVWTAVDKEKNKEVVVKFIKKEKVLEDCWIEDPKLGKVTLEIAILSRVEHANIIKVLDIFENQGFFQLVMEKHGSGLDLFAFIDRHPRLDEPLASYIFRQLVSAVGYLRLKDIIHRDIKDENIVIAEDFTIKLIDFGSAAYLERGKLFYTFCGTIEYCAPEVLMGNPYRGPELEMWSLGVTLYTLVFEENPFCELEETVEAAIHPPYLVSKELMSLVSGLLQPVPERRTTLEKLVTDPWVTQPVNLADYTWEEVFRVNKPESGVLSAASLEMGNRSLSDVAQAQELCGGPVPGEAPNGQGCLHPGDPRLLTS
Procedure: Biochemical Assay for hPASK Activity
PASK ATP Radiochemical Assay
Test compounds in DMSO are then added and the mixture, followed by delivery of ^33P-ATP (specific activity 0.01 μCi/μl final) to initiate the reaction. […] The entire reaction mixture is washed through onto a P81 Phosphocellulose paper and washed three times for 10 minutes in 75 mM phosphoric acid and once in methanol prior to drying and scintillation counting.

T1 sequence (Q96RG2 999-1251 limits assumed): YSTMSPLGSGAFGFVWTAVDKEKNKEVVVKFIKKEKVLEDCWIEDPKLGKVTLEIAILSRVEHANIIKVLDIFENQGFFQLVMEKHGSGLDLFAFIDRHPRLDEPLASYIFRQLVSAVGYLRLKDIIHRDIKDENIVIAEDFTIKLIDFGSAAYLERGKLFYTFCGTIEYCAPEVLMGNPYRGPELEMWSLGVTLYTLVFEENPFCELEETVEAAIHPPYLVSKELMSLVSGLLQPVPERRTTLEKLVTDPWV

## CC(C)N(C)c1nc2cc(C(=O)O)ccc2nc1-c1cc2cc(Cl)ccc2o1 [Example 19, 2-(5-Chlorobenzofuran-2-yl)-3-(isopropyl(methyl)amino)quinoxaline-6-carboxylic acid]
PASK (Invitrogen)
  IC50: < 10 µM
PASK
  IC50: < 10 µM

## CC(C)N(C)c1nc2cc(C(=O)O)ccc2nc1-c1ccc2c(c1)CCCO2 [Example 21, 2-(Chroman-6-yl)-3-(isopropyl(methyl)amino)quinoxaline-6-carboxylic acid]
PASK (Invitrogen)
  IC50: < 10 µM
PASK
  IC50: < 10 µM

## CC(C)N(C)c1nc2cc(C(=O)O)ccc2nc1-c1cc2ccccc2s1 [Example 23, 2-(Benzo[b]thiophen-2-yl)-3-(isopropyl(methyl)amino)quinoxaline-6-carboxylic acid]
PASK (Invitrogen)
  IC50: < 10 µM
PASK
  IC50: < 10 µM

## Cc1n[nH]c2ccc(-c3nc4ccc(C(=O)O)cc4nc3N(C)C(C)C)cc12 [Example 44, 2-(3-Methyl-M-indazol-5-yl)-3-(isopropyl(methyl)amino)quinoxaline-6-carboxylic acid]
PASK (Invitrogen)
  IC50: < 10 µM
PASK
  IC50: < 10 µM

## CC(C)N(C)c1nc2cc(C(=O)O)ccc2nc1-c1cc2ccc(F)cc2o1 [Example 45, 2-(6-Fluoro-1-benzofuran-2-yl)-3-[methyl(propan-2-yl)amino]quinoxaline-6-carboxylic acid]
PASK (Invitrogen)
  IC50: < 10 µM
PASK
  IC50: < 10 µM

## O=C(O)c1ccc2nc(-c3cc4ccc(F)cc4o3)c(N3CCCCCC3)nc2c1 [Example 48, 3-(Azepan-1-yl)-2-(6-fluoro-1-benzofuran-2-yl)quinoxaline-6-carboxylic acid]
PASK (Invitrogen)
  IC50: < 10 µM
PASK
  IC50: < 10 µM

## O=C(O)c1ccc2nc(-c3ccc4c(c3)OC(F)(F)O4)c(N3CCCCCC3)nc2c1 [Example 51, 3-(Azepan-1-yl)-2-(2,2-difluoro-2H-1,3-benzodioxol-5-yl)quinoxaline-6-carboxylic acid]
PASK (Invitrogen)
  IC50: < 10 µM
PASK
  IC50: < 10 µM

## CC(C)N(C)c1nc2cc(C(=O)O)ccc2nc1-c1cc(-c2ccccc2)co1 [Example 52, 3-[Methyl(propan-2-yl)amino]-2-(4-phenylfuran-2-yl)quinoxaline-6-carboxylic acid]
PASK (Invitrogen)
  IC50: < 10 µM
PASK
  IC50: < 10 µM

## C[C@H]1CCCN1c1nc2cc(C(=O)O)ccc2nc1-c1cc2cc(F)ccc2s1 [Example 55, (S)-2-(5-Fluorobenzo[b]thiophen-2-yl)-3-(2-methylpyrrolidin-1-yl)quinoxaline-6-carboxylic acid]
PASK (Invitrogen)
  IC50: < 10 µM
PASK
  IC50: < 10 µM

## C[C@H]1CCCN1c1nc2cc(C(=O)O)ccc2nc1-c1ccc2scnc2c1 [Example 57, 2-(1,3-Benzothiazol-5-yl)-3-[(2S)-2-methylpyrrolidin-1-yl]quinoxaline-6-carboxylic acid]
PASK (Invitrogen)
  IC50: < 10 µM
PASK
  IC50: < 10 µM

## CN(c1nc2cc(C(=O)O)ccc2nc1-c1cc2cc(F)ccc2o1)C1CC1 [Example 61, 3-[Cyclopropyl(methyl)amino]-2-(5-fluoro-1-benzofuran-2-yl)quinoxaline-6-carboxylic acid]
PASK (Invitrogen)
  IC50: < 10 µM
PASK
  IC50: < 10 µM

## CC(C)N(C)c1nc2cc(C(=O)O)ccc2nc1-n1cnc2ccccc21 [Example 63, 2-(1H-Benzo[d]imidazol-1-yl)-3-(isopropyl(methyl)amino)quinoxaline-6-carboxylic acid]
PASK (Invitrogen)
  IC50: < 10 µM
PASK
  IC50: < 10 µM

## CN(c1nc2cc(C(=O)O)ccc2nc1-c1ccc2[nH]ccc2c1)C1CC1 [Example 64, 3-[Cyclopropyl(methyl)amino]-2-(1H-indol-5-yl)quinoxaline-6-carboxylic acid]
PASK (Invitrogen)
  IC50: < 10 µM
PASK
  IC50: < 10 µM

## C[C@H]1COCCN1c1nc2cc(C(=O)O)ccc2nc1-c1ccc2[nH]ccc2c1 [Example 66, (S)-2-(1H-Indol-5-yl)-3-(3-methylmorpholino)quinoxaline-6-carboxylic acid]
PASK (Invitrogen)
  IC50: < 10 µM
PASK
  IC50: < 10 µM

## COC[C@H]1CCCN1c1nc2cc(C(=O)O)ccc2nc1-c1cc2cc(F)ccc2o1 [Example 68, 2-(5-Fluoro-1-benzofuran-2-yl)-3-[(2R)-2-(methoxymethyl)pyrrolidin-1-yl]quinoxaline-6-carboxylic acid]
PASK (Invitrogen)
  IC50: < 10 µM
PASK
  IC50: < 10 µM

## CC[C@H](C)N(C)c1nc2cc(C(=O)O)ccc2nc1-c1cc2cc(F)ccc2o1 [Example 69, (S)-3-(sec-Butyl(methyl)amino)-2-(5-fluorobenzofuran-2-yl)quinoxaline-6-carboxylic acid]
PASK (Invitrogen)
  IC50: < 10 µM
PASK
  IC50: < 10 µM

## C[C@H]1CCCCN1c1nc2cc(C(=O)O)ccc2nc1-c1ccc2[nH]ccc2c1 [Example 73, (S)-2-(1H-Indol-5-yl)-3-(2-methylpiperidin-1-yl)quinoxaline-6-carboxylic acid]
PASK (Invitrogen)
  IC50: < 10 µM
PASK
  IC50: < 10 µM

## CC[C@@H](C)N(C)c1nc2cc(C(=O)O)ccc2nc1-c1cc2cc(F)ccc2o1 [Example 74, (R)-3-(sec-Butyl(methyl)amino)-2-(5-fluorobenzofuran-2-yl)quinoxaline-6-carboxylic acid]
PASK (Invitrogen)
  IC50: < 10 µM
PASK
  IC50: < 10 µM

## Cc1cc2cc(-c3nc4ccc(C(=O)O)cc4nc3N3CCC[C@@H]3C)ccc2[nH]1 [Example 75, 2-(2-Methyl-1H-indol-5-yl)-3-[(2S)-2-methylpyrrolidin-1-yl]quinoxaline-6-carboxylic acid]
PASK (Invitrogen)
  IC50: < 10 µM
PASK
  IC50: < 10 µM

## Cc1cc2cc(-c3nc4ccc(C(=O)O)cc4nc3N(C)C(C)C)ccc2[nH]1 [Example 76, 3-[Methyl(propan-2-yl)amino]-2-(2-methyl-M-indol-5-yl)quinoxaline-6-carboxylic acid]
PASK (Invitrogen)
  IC50: < 10 µM
PASK
  IC50: < 10 µM

## CC(C)N(C)c1nc2cc(C(=O)O)ccc2nc1-c1ccc(-c2ccccc2)o1 [Example 77, 3-[Methyl(propan-2-yl)amino]-2-(5-phenylfuran-2-yl)quinoxaline-6-carboxylic acid]
PASK (Invitrogen)
  IC50: < 10 µM
PASK
  IC50: < 10 µM

## CC(C)N(C)c1nc2cc(C(=O)O)ccc2nc1-c1cc[nH]c1 [Example 81, 3-[Methyl(propan-2-yl)amino]-2-(1H-pyrrol-3-yl)quinoxaline-6-carboxylic acid]
PASK (Invitrogen)
  IC50: < 10 µM
PASK
  IC50: < 10 µM

## Cc1coc2ccc(-c3nc4ccc(C(=O)O)cc4nc3N(C)C(C)C)cc12 [Example 85, 3-[Methyl(propan-2-yl)amino]-2-(3-methyl-1-benzofuran-5-yl)quinoxaline-6-carboxylic acid]
PASK (Invitrogen)
  IC50: < 10 µM
PASK
  IC50: < 10 µM

## Cc1c[nH]c2ccc(-c3nc4ccc(C(=O)O)cc4nc3N(C)C(C)C)cc12 [Example 86, 3-(Isopropyl(methyl)amino)-2-(3-methyl-1H-indol-5-yl)quinoxaline-6-carboxylic acid]
PASK (Invitrogen)
  IC50: < 10 µM
PASK
  IC50: < 10 µM

## C[C@@H]1CCCN1c1nc2cc(C(=O)O)ccc2nc1-c1ccc2c(c1)OCO2 [Example 87, (R)-2-(Benzo[d][1,3]dioxol-5-yl)-3-(2-methylpyrrolidin-1-yl)quinoxaline-6-carboxylic acid]
PASK (Invitrogen)
  IC50: < 10 µM
PASK
  IC50: < 10 µM

## Cc1cc2cc(-c3nc4ccc(C(=O)O)cc4nc3N3CCCC[C@@H]3C)ccc2[nH]1 [Example 88, (S)-2-(2-Methyl-1H-indol-5-yl)-3-(2-methylpiperidin-1-yl)quinoxaline-6-carboxylic acid]
PASK (Invitrogen)
  IC50: < 10 µM
PASK
  IC50: < 10 µM

## Cc1cc2cc(-c3nc4ccc(C(=O)O)cc4nc3N(C)C3CC3)ccc2[nH]1 [Example 89, 3-[Cyclopropyl(methyl)amino]-2-(2-methyl-1H-indol-5-yl)quinoxaline-6-carboxylic acid]
PASK (Invitrogen)
  IC50: < 10 µM
PASK
  IC50: < 10 µM

## C[C@H]1CCCN1c1nc2cc(C(=O)O)c(O)cc2nc1-c1ccc2[nH]ncc2c1 [Example 93, (S)-7-Hydroxy-2-(1H-indazol-5-yl)-3-(2-methylpyrrolidin-1-yl)quinoxaline-6-carboxylic acid]
PASK (Invitrogen)
  IC50: < 10 µM
PASK
  IC50: < 10 µM

## CC[C@H](C)N(C)c1nc2cc(C(=O)O)ccc2nc1-c1ccc(F)cc1 [Example 104, (S)-3-(sec-Butyl(methyl)amino)-2-(4-fluorophenyl)quinoxaline-6-carboxylic acid]
PASK (Invitrogen)
  IC50: < 10 µM
PASK
  IC50: < 10 µM

## O=C(O)c1ccc2nc(-c3ccc(F)cc3)c(N3CCCC[C@@H]3C(F)(F)F)nc2c1 [Example 106, 2-(4-Fluorophenyl)-3-[(2R)-2-(trifluoromethyl)piperidin-1-yl]quinoxaline-6-carboxylic acid]
PASK (Invitrogen)
  IC50: < 10 µM
PASK
  IC50: < 10 µM

## CN(c1nc2cc(C(=O)O)ccc2nc1-c1ccc(F)cc1)C(C)(C)C [Example 107, 3-(tert-Butyl(methyl)amino)-2-(4-fluorophenyl)quinoxaline-6-carboxylic acid]
PASK (Invitrogen)
  IC50: < 10 µM
PASK
  IC50: < 10 µM

## CN(c1nc2cc(C(=O)O)ccc2nc1-c1ccc(F)cc1)C1CCCCC1 [Example 108, 3-(Cyclohexyl(methyl)amino)-2-(4-fluorophenyl)quinoxaline-6-carboxylic acid]
PASK (Invitrogen)
  IC50: < 10 µM
PASK
  IC50: < 10 µM

## CCN(c1nc2cc(C(=O)O)ccc2nc1-c1ccc(F)cc1)C(C)C [Example 111, 3-(Ethyl(isopropyl)amino)-2-(4-fluorophenyl)quinoxaline-6-carboxylic acid]
PASK (Invitrogen)
  IC50: < 10 µM
PASK
  IC50: < 10 µM

## CCN(c1nc2cc(C(=O)O)ccc2nc1-c1ccc(F)cc1)C1CCCCC1 [Example 112, 3-[Cyclohexyl(ethyl)amino]-2-(4-fluorophenyl)quinoxaline-6-carboxylic acid]
PASK (Invitrogen)
  IC50: < 10 µM
PASK
  IC50: < 10 µM

## CCN(CC)c1nc2cc(C(=O)O)ccc2nc1-c1ccc(F)cc1 [Example 113, 3-(Diethylamino)-2-(4-fluorophenyl)quinoxaline-6-carboxylic acid]
PASK (Invitrogen)
  IC50: < 10 µM
PASK
  IC50: < 10 µM

Reference: patent US8912188B2, “Substituted quinoxaline carboxylic acids for the inhibition of PASK” (BioEnergenix, LLC, priority 2011, dated 2014)
